Reference: patent US20060159829A1, “Consumer product for enhancing mental focus” (Conopco Inc, d/b/a UNILEVER, priority 2004, published 2006)

Experiments:
[1] = test system: spoilage yeasts or moulds; test: Antimicrobial effect of cinnamic acid at low and neutral pH; type: cell-based; details: 100 ppm
[2] = cited from earlier work

Row | SMILES | effect on growth of spoilage yeasts or moulds ([1]; neutral pH) | effect on growth of spoilage yeasts or moulds ([1]; pH 3.0) | pKa [2]
1 | O=C(O)C=Cc1ccccc1 [cinnamic acid] | entirely without effect | completely extinguish growth | –
2 | O=S(O)O [sulphite] | – | – | 1.88
